In BindingDB's records for doi:10.1021/jm00020a026 (University of Michigan, 1995):

Test: antiviral activity in Human immunodeficiency virus-1 as reverse transcriptase activity in culture supernatant
`N#Cc1cn([C@@H]2O[C@H](CO)[C@@H](O)[C@@H]2F)c2ncnc(N)c12` gave an IC50 of 12000 nM.
For `N#Cc1cn([C@H]2O[C@H](CO)[C@@H](O)[C@@H]2F)c2ncnc(N)c12`, the IC50 was greater than 100000 nM.
Compound `N#Cc1c(Br)n([C@H]2O[C@H](CO)[C@@H](O)[C@@H]2F)c2ncnc(N)c12` has an IC50 of 32000 nM.
`Cc1cn([C@H]2C[C@H](N=[N+]=[N-])[C@@H](CO)O2)c(=O)[nH]c1=O` [1-((2R,4S,5S)-4-Azido-5-hydroxymethyl-tetrahydro-furan-2-yl)-5-methyl-1H-pyrimidine-2,4-dione] gave an IC50 of 11 nM.
Compound `NC(=S)c1cn(C2OC(CO)C(O)C2F)c2ncnc(N)c12` (stereo unspecified) [4-Amino-7-(3-fluoro-4-hydroxy-5-hydroxymethyl-tetrahydro-furan-2-yl)-7H-pyrrolo[2,3-d]pyrimidine-5-carbothioic acid amide] has an IC50 of 70 nM.
In the case of `NC(=O)c1cn(C2OC(CO)C(O)C2F)c2ncnc(N)c12` (stereo unspecified) [4-Amino-7-(3-fluoro-4-hydroxy-5-hydroxymethyl-tetrahydro-furan-2-yl)-7H-pyrrolo[2,3-d]pyrimidine-5-carboxylic acid amide], the IC50 is reported as 20 nM.
